For 20 molecules, IC50 results are on record in patent publication US9446047B2, “Substituted 2,3-dihydro-1H-inden-1-one retinoic acid-related orphan nuclear receptor antagonists for treating multiple sclerosis” (Arrien Pharmaceuticals LLC, priority 2013, dated 2016).

In assay [1] the target is T1, RORγ-LBD (RORγt) (Homo sapiens, UniProt P51449).
T1 construct: the 6-His-(GST) RORγ-LBD was used which expressed and purified from baculovirus infected Sf-21 insect cells; made in house; host or cells: baculovirus-infected Sf-21 insect cells
T1 sequence (P51449 269-508 limits assumed): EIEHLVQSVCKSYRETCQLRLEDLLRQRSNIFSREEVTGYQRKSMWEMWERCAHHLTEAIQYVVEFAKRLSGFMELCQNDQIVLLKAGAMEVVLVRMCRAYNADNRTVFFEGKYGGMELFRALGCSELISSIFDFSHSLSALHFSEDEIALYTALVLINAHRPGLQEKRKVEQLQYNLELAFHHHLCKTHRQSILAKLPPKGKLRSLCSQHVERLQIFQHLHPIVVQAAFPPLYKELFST
The assay can be described thus: TR-FRET RORγt Binding Assay. The note with it: 6-His(GST)RORγ-LBD, SRC1_2 peptide, read-out: RORγt Binding. Here is the method:
TR-FRET RORγt Binding Assay: RORγ-LBD contains a 6-His and GST tag peptide from SRC1-2 an aminoterminal biotinyl-[…] was employed and the 6-His-(GST) RORγ-LBD was used which expressed and purified from baculovirus infected Sf-21 insect cells from Invitrogen and purified using glutathione sepharose. […] The peptide binding due to dose-curves of compounds was added the 0.1% DMSO. Fluorescence at wavelength 340 nm was read in each well of […] using an Envision fluorescence reader in Time Resolved mode after overnight incubation at 4° C.
(TR-FRET usually uses a lanthanide donor and a delayed reading to cut background.)

Assay [2] deals with T2, RORγt (Homo sapiens, UniProt P51449).
T2 construct: host or cells: IL-17A Prom/LUCPorter HEK 293 cell line (IMGENEX, IML-301)
T2 sequence (P51449 1-497 isoform P51449-2): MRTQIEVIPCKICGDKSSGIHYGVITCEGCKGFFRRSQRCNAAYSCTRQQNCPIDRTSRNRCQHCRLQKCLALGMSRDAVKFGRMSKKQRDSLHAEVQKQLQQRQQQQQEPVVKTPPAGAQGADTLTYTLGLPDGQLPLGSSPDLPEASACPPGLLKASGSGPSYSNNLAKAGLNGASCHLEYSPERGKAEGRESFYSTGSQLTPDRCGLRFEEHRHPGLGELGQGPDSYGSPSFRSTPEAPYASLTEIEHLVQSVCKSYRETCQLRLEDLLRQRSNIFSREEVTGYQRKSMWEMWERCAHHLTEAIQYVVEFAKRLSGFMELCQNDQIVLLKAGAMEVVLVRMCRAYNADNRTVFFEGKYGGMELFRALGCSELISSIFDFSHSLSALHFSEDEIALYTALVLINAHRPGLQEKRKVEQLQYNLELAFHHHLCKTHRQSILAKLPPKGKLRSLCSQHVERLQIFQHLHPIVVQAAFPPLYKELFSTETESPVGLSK
Kind of assay: RORγt-activated IL-17A Prom/LUCPorter HEK 293 cells luciferase reporter assay. Type of assay: cell-based. The conditions noted are these: IL-17A Prom/LUCPorter HEK 293 cells transfected with RORγt, 16 h; read-out: RORγt Cell Specific. Here is the method:
Antagonistic (or inverse agonistic) effects of the test compounds on the RORγt-activated IL-17A Prom/LUCPorter™ HEK 293 cells were analyzed and IC50 of each compound was evaluated. […] Luciferase activity was analyzed using the luciferase reporter assay reagent (IMGENEX, LS100). The data were analyzed using Excel and Prism software. Percent activity was defined as 100×(1−(Well−Control A)/(Control B−Control A)), where Control A was the wells containing cells transfected with RORγt and Control B was the wells containing non-transfected cells. Both Controls A and B were treated with vehicle alone.
On the technique in general: A reporter such as luciferase makes a cellular process visible.

In assay [3] the test system is IL-17 release from CD4+ T cells. Kind of assay: Cytokine IL-17 estimation by HTRF, IL-17 release from CD4+ T cells. The note with it: Homo sapiens, read-out: IL-17 Inhibition. It counts as cell-based. The text has this: The assay was designed to assess the potency of test compounds on IL-17 cytokine release from CD4+ T cells. In order to aid in the identification of potent inhibitors, the IC50's determined for the test compounds IL-17 release from CD4+ T cells through the generation of 10 point Dose Response Curves (DRC). Assay methods used to quantify IL-17 secretion is HTRF (Homogenous Time Resolved Fluorescence). IL-17 secreted is detected by anti-IL-17 MAb labeled with XL665, the second MAb labeled with Cryptate, which binds to specific epitopes of human IL-17. Upon close proximity of both acceptor and donor energy transfer (FRET) occurs. This technique has been further enhanced by using long-lived labels combined with the detection on a time-resolved fluorescence basis, allowing […] of prompt fluorescence interferences.
The assay was performed according to manufacturer's instruction. All the reagents were reconstituted according to instructions provided. The reagents were dispensed into a half area 96-well plate in the following order: […] or sample, IL-17 MAbXL665 and 5 μL IL-17 Cryptate. For the negative control, the standard or sample is replaced by […]. The plate is covered with a plate sealer and incubated at rt for 2 h. Following incubation, the plate sealer is removed and the plate is read using HTRF protocol on Envision Microplate reader. All of the data analysis was carried out using Microsoft Excel (2010) and IC50 was determined using GraphPad Prism 4 software. % Inhibition of the test compounds were determined utilizing the following formula: % Inhibition=100−(100*(Average Test Compound Counts−Average Negative Control Counts)/(Average Positive Control Counts−Average Negative Control Counts)).
We have established robust in vitro cell-based HTRF assay for the activation and stimulation of CD4+ T lymphocytes to T helper 17 (Th17) cell differentiation and IL-17 production.

Where [4] appears, read: IL-17 release from CD4+ T cells, HTRF.

Each structure is given as a SMILES string. Read-outs that look alike come from different tables or passages of the source.

With `COc1cc2c(cc1N1CCOCC1)CC(Cc1cc(C(F)(F)F)ccc1NC(=O)C(C)(C)C)C2=O` (stereo not drawn) [compound 65, N-(2-((6-methoxy-5-morpholino-1-oxo-2,3-dihydro-1H-inden-2-yl)methyl)-4-(trifluoromethyl)phenyl)pivalamide], the IC50 in assay [1] was over 10000 nM; in assay [2], over 1000 nM; in assay [3] (setting [4]), over 1000 nM.

For `COc1cc2c(cc1N1CCN(C)CC1)CC(Cc1ccc(SC(F)(F)F)cc1)C2=O` (stereo not drawn) [compound 106], the values for the IC50 in assay [1], in assay [2] and in assay [3] (setting [4]) were under 500 nM, over 1000 nM and over 1000 nM, respectively.

As to `COc1cc2c(c(N3CCC(C)CC3)c1OC)CC(Cc1ccc(SC(F)(F)F)cc1)C2=O` (stereo not drawn) [compound 131, 5,6-dimethoxy-4-(4-methylpiperidin-1-yl)-2-(4-((trifluoromethyl)thio)benzyl)-2,3-dihydro-1H-inden-1-one], the IC50 in assay [1], in assay [2] and in assay [3] (setting [4]) was over 1000 nM each time.

Regarding `COc1cc2c(cc1-c1ccc(OC(F)(F)F)cc1F)CC(Cc1ncccc1C(F)(F)F)C2=O` (stereo not drawn) [compound 216], the IC50 in assay [1] was over 1000 nM; in assay [2], over 1000 nM; in assay [3] (setting [4]), under 500 nM.

`COc1cc2c(cc1N1CCC(F)CC1)CC(Cc1ccc(SC(F)(F)F)cc1)C2=O` (stereo not drawn) [compound 149, 5-(4-fluoropiperidin-1-yl)-6-methoxy-2-(4-((trifluoromethyl)thio)benzyl)-2,3-dihydro-1H-inden-1-one]: the results for the IC50 in assay [1], in assay [2] and in assay [3] (setting [4]) were under 500 nM, over 10000 nM and over 1000 nM, respectively.

On to `O=C1c2ccc(O)cc2CC1Cc1ccc(SC(F)(F)F)cc1` (stereo not drawn) [compound 193], for which the IC50 in assay [1], in assay [2] and in assay [3] (setting [4]) was under 500 nM in each case.

Regarding `COc1cc2c(cc1N1CCOCC1)CC(Cc1cc(Cl)cc(C(F)(F)F)c1)C2=O` (stereo not drawn) [compound 50, 2-(3-chloro-5-(trifluoromethyl)benzyl)-6-methoxy-5-morpholino-2,3-dihydro-1H-inden-1-one], the IC50 was under 500 nM in assay [1], over 1000 nM in assay [2] and over 1000 nM in assay [3] (setting [4]).

Consider `COc1cc2c(cc1N1CCOCC1)CC(Cc1cc(Br)cc(OC(F)(F)F)c1)C2=O` (stereo not drawn) [compound 32, 2-(3-bromo-5-(trifluoromethoxy)benzyl)-6-methoxy-5-morpholino-2,3-dihydro-1H-inden-1-one], for which the IC50 in assay [1] is under 500 nM; in assay [2], under 500 nM; in assay [3] (setting [4]), over 1000 nM.

For the molecule `COc1cc2c(cc1N1CCN(C)CC1)CC(Cc1cccc(C(F)(F)F)c1)C2=O` (stereo not drawn) [compound 103, 6-methoxy-5-(4-methylpiperazin-1-yl)-2-(3-(trifluoromethyl)benzyl)-2,3-dihydro-1H-inden-1-one], the values for the IC50 in assay [1], in assay [2] and in assay [3] (setting [4]) were under 500 nM, over 1000 nM and over 1000 nM, respectively.

As to `COc1cc2c(cc1N1CCOCC1)CC(Cc1cc(C(F)(F)F)ccc1F)C2=O` (stereo not drawn) [compound 77, 2-(2-fluoro-5-(trifluoromethyl)benzyl)-6-methoxy-5-morpholino-2,3-dihydro-1H-inden-1-one], the IC50 in assay [1], in assay [2] and in assay [3] (setting [4]) was over 1000 nM throughout.

With `COc1cc2c(cc1N1CCOCC1)CC(Cc1ncccc1C(F)(F)F)C2=O` (stereo not drawn) [compound 68, 6-methoxy-5-morpholino-2-((3-(trifluoromethyl)pyridin-2-yl)methyl)-2,3-dihydro-1H-inden-1-one], the IC50 in assay [1], in assay [2] and in assay [3] (setting [4]) was under 500 nM each time.

Take `COc1cc2c(c(N3CCN(C)CC3)c1OC)CC(Cc1ccc(SC(F)(F)F)cc1)C2=O` (stereo not drawn) [compound 125, 5,6-dimethoxy-4-(4-methylpiperazin-1-yl)-2-(4-((trifluoromethyl)thio)benzyl)-2,3-dihydro-1H-inden-1-one]: the IC50 in assay [1], in assay [2] and in assay [3] (setting [4]) was over 1000 nM each time.

As to `COc1cc2c(cc1N1CCOCC1)CC(Cc1cc(C(F)(F)F)cc(C(O)(C(F)(F)F)C(F)(F)F)c1)C2=O` (stereo not drawn) [compound 229, 2-(3-(1,1,1,3,3,3-hexafluoro-2-hydroxypropan-2-yl)-5-(trifluoromethyl)benzyl)-6-methoxy-5-morpholino-2,3-dihydro-1H-inden-1-one], the IC50 in assay [1], in assay [2] and in assay [3] (setting [4]) was under 500 nM throughout.

Regarding `COc1cc2c(cc1N1CCC(F)CC1)CC(Cc1ncccc1C(F)(F)F)C2=O` (stereo not drawn) [compound 151, 5-(4-fluoropiperidin-1-yl)-6-methoxy-2-((3-(trifluoromethyl)pyridin-2-yl)methyl)-2,3-dihydro-1H-inden-1-one], the IC50 in assay [1], in assay [2] and in assay [3] (setting [4]) was over 1000 nM in each case.

Consider `COc1cc2c(cc1N1CCN(C)C(C)C1)CC(Cc1ccc(Cl)cc1F)C2=O` (stereo not drawn) [compound 20, 2-(4-chloro-2-fluorobenzyl)-5-(3,4-dimethylpiperazin-1-yl)-6-methoxy-2,3-dihydro-1H-inden-1-one], for which the IC50 in assay [1] was over 1000 nM; in assay [2], over 10000 nM; in assay [3] (setting [4]), over 1000 nM.

Regarding `COc1cc2c(cc1N1CCN(C)CC1)CC(Cc1cc(C(F)(F)F)cc(C(O)(C(F)(F)F)C(F)(F)F)c1)C2=O` (stereo not drawn) [compound 240, 2-(3-(1,1,1,3,3,3-hexafluoro-2-hydroxypropan-2-yl)-5-(trifluoromethyl)benzyl)-6-methoxy-5-(4-methylpiperazin-1-yl)-2,3-dihydro-1H-inden-1-one], the IC50 in assay [1], in assay [2] and in assay [3] (setting [4]) was under 500 nM each time.

Consider `COc1ccc2c(c1)CC(Cc1ncccc1C(F)(F)F)C2=O` (stereo not drawn) [compound 184], for which the results for the IC50 in assay [1], in assay [2] and in assay [3] (setting [4]) were under 500 nM, over 1000 nM and under 500 nM, respectively.

Consider `COc1cc2c(cc1O)C(=O)C(Cc1ccc(SC(F)(F)F)cc1)C2` (stereo not drawn) [compound 187], for which the IC50 was over 1000 nM in assay [1], over 1000 nM in assay [2] and under 500 nM in assay [3] (setting [4]).

In the case of `COc1cc2c(cc1N1CCOCC1)CC(Cc1cc(C(F)(F)F)cnc1Cl)C2=O` (stereo not drawn) [compound 62, 2-((2-chloro-5-(trifluoromethyl)pyridin-3-yl)methyl)-6-methoxy-5-morpholino-2,3-dihydro-1H-inden-1-one], the results for the IC50 in assay [1], in assay [2] and in assay [3] were over 1000 nM, over 1000 nM and under 500 nM, respectively.

With `COc1cc2c(cc1Cl)CC(Cc1ncccc1C(F)(F)F)C2=O` (stereo not drawn) [compound 174], the IC50 in assay [1] was over 1000 nM; in assay [2] it was over 1000 nM; in assay [3] (setting [4]), under 500 nM.
